Measured values reported in patent US20230099567A1, “COMPOSITION FOR TREATMENT, PREVENTION, OR AMELIORATION OF LYMPHEDEMA” (RAPPELER CO., LTD., priority 2020, published 2023).
Like-named read-outs stand apart in the source and are kept apart here.

Key:
[1] = tested on: LPS-induced TNFα production in mouse peritoneal macrophages; experiment: LPS-induced TNFα production in mouse peritoneal macrophages (ELISA); type: cell-based; details: for IC50 / TNFα production inhibitory ability compared with butein (FIG. 1): mouse peritoneal macrophages; for IC50: 100 ng/ml LPS 24 h, measured twice, mean ± standard deviation, read-out: IC50, dose-dependent inhibition of TNFα production in macrophages; for IC50 value compared with positive control butein: TNFα production in macrophages; for TNFα production inhibitory ability compared with butein (FIG. 1): compound 20 μM, LPS-induced
Procedure: To isolate peritoneal macrophages, male Balb/c mice were intraperitoneally injected with 2 ml of 3.5% sterile thioglycolate (B D, Sparks, Md., USA) 4 days before being sacrificed. Mice were sacrificed by cervical dislocation, and peritoneal secretory cells were aseptically isolated through peritoneal washing with cold DMEM (HyClone, Logan, Utah, USA) containing 10% FBS (fetal bovine serum; HyClone) and 1% penicillin-streptomycin. After centrifugation, cells were resuspended and counted using a TC20 Cell Counter (Bio-Rad Laboratories, Hercules, Calif., USA). Peritoneal secretory cells were left in a 24-well plate overnight at 37° C., and non-adherent cells were removed. The cells were then stimulated with 100 ng/ml lipopolysaccharide (LPS) for 24 hours. The supernatant was collected during cytokine analysis, and the level of TNFα in the supernatant was measured using BD OptEIA mouse ELISA sets (BD Biosciences, San Diego, Calif., USA) according to the manufacturer's protocol. […] IC50 (μM) values were measured twice, respectively, and expressed as mean±standard deviation.

[2] = Physicochemical properties (pKa, logP, solubility)
Source text: Compound 1 is butein and the therapeutic effect on lymphedema thereof is disclosed in Korean Patent Publication No. 10-1533197 (published on Jul. 2, 2015).

[3] = Pharmacokinetic analysis in mice after I.V. and oral administration; type: in vivo, mouse; details: for BA (bioavailability): (AUCpo/AUCiv)×100; for AUC(0-inf) / Cmax: mouse, plasma; for Cmax: read-out: Cmax (maximum plasma concentration)
Procedure: Compounds were administered to 5-week-old male CD-1 mice through 1 mg/kg tail vein administration (administration volume of 5 mL/kg), 20 mg/kg oral administration, and 100 mg/kg oral administration, respectively. Three mice were used for each independent experiment. Blood samples were taken in an amount of 20 μL to 30 μL via the saphenous vein at 5, 15, 30, 60, 120, 180, 360, and 1440 minutes.
In addition, pharmacokinetic parameters were calculated from non-compartmental analysis using Win Non-lin.
In Table 3, T1/2 denotes the terminal half-life, Cmax denotes the maximum plasma concentration, AUC-O denotes the area under the plasma concentration-time curve from time zero to infinity, and indicates exposure concentration of whole blood, and BA represents bioavailability expressed as (AUCpo/AUCiv)×100. […] Cmax and AUC∞ are mean±SD values obtained from three male ICR mice. Regarding blood exposure during systemic circulation of the compound, the compound was orally administered at an amount of 100 mg/kg, and then, AUC (area under the curve) was measured, and the obtained measurements were compared.

[4] = tested on: lymphedema induced in mice; experiment: Prophylactic effect on lymphedema formation, surgically induced murine lymphedema model (volume); type: in vivo, mouse; details: 7th day after surgery, oral administration 7 days before surgery, then once every two days, vs control group
Procedure: All animal tests in the following examples were performed after obtaining approvals by the Institutional Animal Care and Use Committee (IACUC) of Sungkyunkwan University School of Medicine (Approval No.: […]-20150037). All methods were performed according to the approved guidelines. […] Briefly, major lymphatic sites including inguinal lymph nodes, popliteal lymph nodes, deep inguinal lymph nodes and femoral lymphatic vessels were removed, and the lower right leg of the mouse was limitedly cauterized under anesthesia.
Compounds 1, 7m, and 14a were each orally administered to mice for 7 days before surgical induction of lymphedema in mice.
On the other hand, in the control group, the compound 1 treatment group, the compound 7m treatment group, and the compound 14a treatment group, lymphedema was induced through surgery. After surgery, the compounds were administered once every two days.
The volume of lymphedema was measured on the 7th day after surgery, and the size of the lymphedema was recorded using a caliper ruler by a person who was blinded to the treatment status of the mice.

[5] = tested on: lymphedema tissue; experiment: Histological (H&E) analysis of lymphedema tissue of the right hind leg; type: in vivo; details: 7th day after surgery, right hind leg of mouse
Source text: (§1) Tissue samples were collected on the 7th day after surgery to induce lymphedema at a location 15 mm-25 mm from the right leg of the mouse. The harvested tissue samples were fixed with 10% formalin solution, and the specimens were cut to a thickness of 5 μm. Sections were deparaffinized in 100% xylene, rehydrated with a series of 100% ethanol, 95% ethanol, 90% ethanol, 80% ethanol, and 70% ethanol, and washed with water. Sections were reacted with hematoxylin solution at room temperature. After washing in PBS, sections were stained with eosin at room temperature. Images were acquired by a Pannoramic viewer microscope (3[…] Ltd., Hungary). Prepared slides were incubated using anti-mouse PPARγ (Santa Cruz Biotechnology, USA) and Alexa Fluor 488 and DAPI (Life Technologies, USA). Samples were analyzed using a Nikon ECLIPSE 80i microscope (Nikon Instruments Inc., Japan).
In FIG. 3A, the scale bar of the upper panel is 500 μm, and the scale bar of the lower panel is 100 μm.
In FIG. 4A, the scale bar of the upper panel is 200 μm, and the scale bar of the lower panel is 100 μm.

[6] = tested on: TNFα; experiment: mRNA expression of TNFα in lymphedema tissue; type: in vivo; details: 7th day after surgery, mouse
Source text: As a result, it was confirmed that the expression level of TNFα mRNA was decreased in the compound 1 treatment group and the compound 14a treatment group (with respect to the control group, *: P<0.05; with respect to compound 1, #: P<0.05).

[7] = tested on: PPARγ; experiment: Immunofluorescence staining of PPARγ in epidermal layer of lymphedema tissue; type: in vivo; details: mouse
Source text: as §1
In addition, peroxisome […] (PPARγ) is a major regulator of lipogenesis, and as shown in FIG. 4B showing the results of immunofluorescence staining, the distribution of PPARγ in the epidermal layer of lymphedema tissue after treatment with compound 1 and compound 14a was suppressed.

[8] = tested on: PPARγ and a target protein Fabp4; experiment: Expression of PPARγ and Fabp4 in lymphedema tissue (western blot, mRNA); type: in vivo; details: mouse
[9] = Mus musculus, Peritoneal macrophage, 24 h
[10] = water solubility, read-out: Solubility
[11] = po, P.O, 20 mg/Kg, male CD-1 mice

**Q.** For `CC(C)Oc1cc(O)ccc1C(=O)/C=C/c1ccc(O)c(O)c1` [7j, (E)-3-(3,4-dihydroxyphenyl)-1-(4-hydroxy-2-isopropoxyphenyl)prop-2-en-1-one], which melting point is on record?
**A.** 80.4 °C

**Q.** Which IC50 [1, 9] does the source give for `COc1ccc(C(=O)Oc2cc(O)ccc2C(=O)/C=C/c2ccc(O)c(O)c2)cc1` [compound 14c, (E)-2-(3-(3,4-dihydroxyphenyl)acryloyl)-5-hydroxyphenyl 4-methoxybenzoate] here?
**A.** 20.8 ± 1.62 µM

**Q.** And the melting point?
**A.** 161.1 °C

**Q.** Which melting point does the source give for `O=C(/C=C/c1ccc(O)c(O)c1)c1ccc(O)cc1F` [7g, (E)-3-(3,4-dihydroxyphenyl)-1-(2-fluoro-4-hydroxyphenyl)prop-2-en-1-one] here?
**A.** 207.8 °C

**Q.** Which IC50 [1, 9] does the source give for `O=C(/C=C/c1ccc(O)c(O)c1)c1ccc(O)cc1O` [compound 1, (E)-1-(2,4-dihydroxyphenyl)-3-(3,4-dihydroxyphenyl)prop-2-en-1-one, reference compound] here?
**A.** 43 µM

**Q.** And the inhibition at 20 µM ([1]; Mus musculus, Peritoneal macrophage, treated in vitro at 20 μM, read-out: efficacy (inhibition))?
**A.** 10%

**Q.** What about the IC50 [1] of the same compound?
**A.** 43.3 ± 1.72 µM

**Q.** What about the “logP (partition coefficient)” value [2] of the same compound?
**A.** 0.42

**Q.** And the solubility [2, 10]?
**A.** 21 µg/mL

**Q.** What about the solubility ([2]; water, read-out: water solubility) of the same compound?
**A.** 79 µM

**Q.** And the “Cmax (maximum plasma concentration)” value ([3]; I.V, 1 mg/Kg, male CD-1 mice)?
**A.** 41 ng/mL

**Q.** What about the Tmax ([3]; I.V, 1 mg/Kg, male CD-1 mice) of the same compound?
**A.** 6 min

**Q.** What about the Tmax ([3]; P.O, 20 mg/Kg, male CD-1 mice) of the same compound?
**A.** 18 min

**Q.** And the “BA (bioavailability)” value ([3]; P.O, 20 mg/Kg, male CD-1 mice)?
**A.** 15%

**Q.** And the Tmax ([3]; P.O, 100 mg/Kg, male CD-1 mice)?
**A.** 18 min

**Q.** What about the “BA (bioavailability)” value ([3]; P.O, 100 mg/Kg, male CD-1 mice) of the same compound?
**A.** 37%

**Q.** And the “terminal half-life” value ([3]; mice)?
**A.** too short terminal half-life

**Q.** What about the AUC(0-inf) ([3]; iv, I.V, 1 mg/Kg, male CD-1 mice) of the same compound?
**A.** 6.7 ng·h/mL

**Q.** What about the AUC(0-inf) [3, 11] of the same compound?
**A.** 21 ng·h/mL

**Q.** What about the Cmax [3, 11] of the same compound?
**A.** 43 ng/mL

**Q.** What about the Cmax ([3]; po, P.O, 100 mg/Kg, male CD-1 mice) of the same compound?
**A.** 601 ng/mL

**Q.** What about the “volume of lymphedema reduced by” value [4] of the same compound?
**A.** 52%

**Q.** And the “development of adipose tissue in the epidermal layer (H&E, FIG. 4A)” value [5]?
**A.** inhibiting the development of adipose tissue in the epidermal layer

**Q.** And the “expression level of TNFα mRNA in lymphedema tissue (FIG. 3B)” value [6]?
**A.** decreased

**Q.** And the “distribution of PPARγ in the epidermal layer of lymphedema tissue (FIG. 4B)” value [7]?
**A.** suppressed

**Q.** And the “levels of PPARγ and Fabp4 mRNA (FIG. 4D)” value ([8]; lymphedema tissue)?
**A.** superior efficacy compared to the control group

**Q.** What about the “expression of PPARγ and Fabp4 in lymphedema tissue (western blot, FIG. 4C)” value [8] of the same compound?
**A.** reduced the expression of PPARγ

**Q.** Which melting point does the source give for `COc1ccc(/C=C/C(=O)c2ccc(O)cc2O)cc1O` [7b, (E)-1-(2,4-dihydroxyphenyl)-3-(3-hydroxy-4-methoxyphenyl)prop-2-en-1-one] here?
**A.** 206.4 °C

**Q.** What does the source list for `Cc1cc(O)ccc1C(=O)/C=C/c1ccc(O)c(O)c1` [compound 7h, (E)-3-(3,4-dihydroxyphenyl)-1-(4-hydroxy-2-methylphenyl)prop-2-en-1-one]?
**A.** IC50 [1, 9]: 48.4 ± 2.35 µM; melting point: 208.2 °C

**Q.** With `CC(=O)Oc1ccc(C(=O)/C=C/c2ccc(OC(C)=O)c(OC(C)=O)c2)c(OC(C)=O)c1` [compound 8a, (E)-4-(3-(2,4-diacetoxyphenyl)-3-oxoprop-1-en-1-yl)-1,2-phenylene diacetate] as the compound, how does the IC50 [1, 9] read?
**A.** 12.8 ± 1.24 µM

**Q.** What about the “IC50 value compared with positive control butein” value [1] of the same compound?
**A.** significantly superior IC50 values compared to butein

**Q.** What about the “TNFα production inhibitory ability compared with butein (FIG. 1)” value [1] of the same compound?
**A.** significantly better TNFα production inhibitory ability than the positive control butein treatment group

**Q.** What about the melting point of the same compound?
**A.** 131.3 °C

**Q.** With `O=C(/C=C/c1ccc(F)c(O)c1)c1ccc(O)cc1O` [7d, (E)-1-(2,4-dihydroxyphenyl)-3-(4-fluoro-3-hydroxyphenyl)prop-2-en-1-one] as the compound, how does the melting point read?
**A.** 252.4 °C

**Q.** Which results are given for `O=C(/C=C/c1ccc(O)c(O)c1)c1ccc(Cl)cc1` [compound 7m, (E)-1-(4-chlorophenyl)-3-(3,4-dihydroxyphenyl)prop-2-en-1-one]?
**A.** IC50 [1, 9]: 17.3 ± 2.11 µM; IC50 value compared with positive control butein [1]: significantly superior IC50 values compared to butein; logP (partition coefficient) [2]: 3.77; solubility [2, 10]: 28 µg/mL; volume of lymphedema reduced by [4]: 53%

**Q.** With `COc1ccc(C(=O)/C=C/c2ccc(O)c(O)c2)c(OC)c1` [7k, (E)-3-(3,4-dihydroxyphenyl)-1-(2,4-dimethoxyphenyl)prop-2-en-1-one] as the compound, how does the melting point read?
**A.** 162.9 °C

**Q.** Which “TNFα production inhibitory ability compared with butein (FIG. 1)” value [1] does the source give for `O=C(Oc1ccc(C(=O)/C=C/c2ccc(OC(=O)c3ccccc3)c(OC(=O)c3ccccc3)c2)c(OC(=O)c2ccccc2)c1)c1ccccc1` [compound 8b, (E)-4-(3-(2,4-bis(benzoyloxy)phenyl)-3-oxoprop-1-en-1-yl)-1,2-phenylene dibenzoate] here?
**A.** significantly better TNFα production inhibitory ability than the positive control butein treatment group

**Q.** What about the melting point of the same compound?
**A.** 36.7 °C

**Q.** With `Cc1ccc(C(=O)/C=C/c2ccc(O)c(O)c2)cc1` [compound 7l, (E)-3-(3,4-dihydroxyphenyl)-1-(p-tolyl)prop-2-en-1-one] as the compound, how does the IC50 [1, 9] read?
**A.** 18.6 ± 1.5 µM

**Q.** What about the “IC50 value compared with positive control butein” value [1] of the same compound?
**A.** significantly superior IC50 values compared to butein

**Q.** What about the melting point of the same compound?
**A.** 190.9 °C

**Q.** Which IC50 [1, 9] does the source give for `Cc1ccc(C(=O)Oc2cc(O)ccc2C(=O)/C=C/c2ccc(O)c(O)c2)cc1` [compound 14b, (E)-2-(3-(3,4-dihydroxyphenyl)acryloyl)-5-hydroxyphenyl 4-methylbenzoate] here?
**A.** 18.9 ± 1.15 µM

**Q.** And the melting point?
**A.** 185.7 °C

**Q.** For `O=C(Oc1cc(O)ccc1C(=O)/C=C/c1ccc(O)c(O)c1)c1ccc(Cl)cc1` [compound 14d], which melting point is on record?
**A.** 102.8 °C
